Assay results published in patent publication US20230399342A1 (Incyte Corporation, priority 2022, published 2023).

Key:
[1] = target: DGKα (Homo sapiens (Human), UniProt P23743); assay: In vitro DGKα inhibition assay (ADP-Glo); format: biochemical; conditions: His-tagged human recombinant enzyme, 0.1 nM DGKα, 50 μM ATP, 20 μM DLG, 90 minute incubation
How it was run: (§1)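 His-tagged human DGKα (0.1 nM, 50 μM ATP) or DGKζ (0.4 nM, 30 μM ATP), each with 20 μM DLG, in Tris pH 7.5 buffer with CHAPS, Mg2+, Ca2+.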

[2] = target: DGKζ (Homo sapiens (Human), UniProt Q13574); assay: In vitro DGKζ inhibition assay (ADP-Glo); format: biochemical; conditions: His-tagged human recombinant enzyme, 0.4 nM DGK, 30 μM ATP, 20 μM DLG, 90 minute incubation
Chain of DGKζ (Q13574 whole entry): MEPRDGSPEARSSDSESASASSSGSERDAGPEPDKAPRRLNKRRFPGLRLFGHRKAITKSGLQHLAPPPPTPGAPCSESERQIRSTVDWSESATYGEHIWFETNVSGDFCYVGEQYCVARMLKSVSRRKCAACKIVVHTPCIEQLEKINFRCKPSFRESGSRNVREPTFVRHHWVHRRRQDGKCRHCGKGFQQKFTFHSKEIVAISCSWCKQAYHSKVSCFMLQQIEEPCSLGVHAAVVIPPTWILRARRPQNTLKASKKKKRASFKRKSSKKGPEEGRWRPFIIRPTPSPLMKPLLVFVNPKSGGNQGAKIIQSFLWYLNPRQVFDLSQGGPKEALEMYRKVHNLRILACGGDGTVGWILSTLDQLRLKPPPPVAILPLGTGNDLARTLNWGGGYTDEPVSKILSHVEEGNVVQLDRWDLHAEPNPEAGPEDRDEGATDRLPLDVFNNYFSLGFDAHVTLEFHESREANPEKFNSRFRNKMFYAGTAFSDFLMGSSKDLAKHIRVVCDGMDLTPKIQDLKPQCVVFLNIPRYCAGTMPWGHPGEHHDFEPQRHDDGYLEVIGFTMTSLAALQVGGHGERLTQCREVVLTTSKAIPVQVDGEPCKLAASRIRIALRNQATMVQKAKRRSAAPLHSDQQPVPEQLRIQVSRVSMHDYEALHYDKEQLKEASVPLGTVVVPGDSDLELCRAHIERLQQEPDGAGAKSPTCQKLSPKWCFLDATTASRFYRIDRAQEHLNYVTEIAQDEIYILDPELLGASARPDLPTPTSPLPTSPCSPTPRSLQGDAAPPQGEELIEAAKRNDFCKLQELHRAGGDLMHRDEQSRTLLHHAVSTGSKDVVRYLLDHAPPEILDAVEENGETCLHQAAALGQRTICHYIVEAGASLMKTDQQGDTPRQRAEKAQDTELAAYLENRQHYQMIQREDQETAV
How it was run: as §1

Chain of DGKα (P23743 whole entry): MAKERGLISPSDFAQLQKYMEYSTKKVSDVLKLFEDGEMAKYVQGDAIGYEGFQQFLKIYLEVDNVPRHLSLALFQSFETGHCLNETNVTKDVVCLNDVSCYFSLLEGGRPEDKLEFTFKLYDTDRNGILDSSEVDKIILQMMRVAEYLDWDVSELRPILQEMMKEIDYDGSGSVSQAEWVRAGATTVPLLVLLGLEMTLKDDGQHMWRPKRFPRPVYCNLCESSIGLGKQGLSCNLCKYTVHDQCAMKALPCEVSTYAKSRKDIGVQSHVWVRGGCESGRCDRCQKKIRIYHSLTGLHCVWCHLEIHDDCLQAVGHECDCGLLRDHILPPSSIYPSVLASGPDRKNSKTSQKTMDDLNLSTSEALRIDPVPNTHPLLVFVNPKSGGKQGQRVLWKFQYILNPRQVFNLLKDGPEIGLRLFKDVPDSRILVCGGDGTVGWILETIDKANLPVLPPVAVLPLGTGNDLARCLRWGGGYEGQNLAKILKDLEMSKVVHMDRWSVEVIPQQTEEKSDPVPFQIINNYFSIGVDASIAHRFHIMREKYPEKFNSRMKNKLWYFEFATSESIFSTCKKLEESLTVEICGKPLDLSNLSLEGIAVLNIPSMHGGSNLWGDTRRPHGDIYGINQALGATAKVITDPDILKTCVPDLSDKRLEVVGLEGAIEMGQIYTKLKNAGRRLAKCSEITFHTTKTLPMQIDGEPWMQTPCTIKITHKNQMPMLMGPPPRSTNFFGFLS

| Structure (SMILES) | IC50 [1] | IC50 [2] |
| --- | --- | --- |
| C[C@@H]1CN(c2nc3nncn3c3sc(C(F)F)nc23)[C@@H](C)CN1C(c1ccc(F)cc1)c1ccc(F)cc1 [Example 3, 4-((2S,5R)-4-(Bis(4-fluorophenyl)methyl)-2,5-dimethylpiperazin-1-yl)-2-(difluoromethyl)thiazolo[4,5-e][1,2,4]triazolo[4,3-a]pyrimidine] | ≤ 0.02 µM | 0.2 to 2 µM |
| CC(C)[C@@H](c1ccc(Cl)cc1)N1C[C@H](C)N(c2nc3nncn3c3c2ncn3CCN(C)C)C[C@H]1C [Example 90, 2-(4-((2S,5R)-4-((S)-1-(4-Chlorophenyl)-2-methylpropyl)-2,5-dimethylpiperazin-1-yl)-1H-[1,2,4]triazolo[3,4-b]purin-1-yl)-N,N-dimethylethan-1-amine] | ≤ 0.02 µM | ≤ 0.02 µM |
| [2H]c1nc2c(N3C[C@@H](CC)N(C(c4ccc(F)cc4)c4ccc(F)cc4)C[C@@H]3C)nc3nncn3c2n1CCN(C)C [Example 38, 2-(4-((2S,5R)-4-(Bis(4-fluorophenyl)methyl)-5-ethyl-2-methylpiperazin-1-yl)-1H-[1,2,4]triazolo[3,4-b]purin-1-yl-2-d)-N,N-dimethylethan-1-amine] | ≤ 0.02 µM | ≤ 0.02 µM |
| CC[C@@H]1CN(c2nc3nncn3c3c2nc(C)n3C[C@@H]2CCCO2)[C@@H](C)CN1[C@H](c1ccc(OC(F)F)cc1)C(C)C [Example 126, 4-((2S,5R)-4-((S)-1-(4-(Difluoromethoxy)phenyl)-2-methylpropyl)-5-ethyl-2-methylpiperazin-1-yl)-2-methyl-1-(((S)-tetrahydrofuran-2-yl)methyl)-1H-[1,2,4]triazolo[3,4-b]purine] | ≤ 0.02 µM | ≤ 0.02 µM |
| CC(C)[C@@H](c1ccc(F)cc1)N1C[C@H](C)N(c2nc3nncn3c3c2ncn3CC2CC2)C[C@H]1C [Example 22, 1-(Cyclopropylmethyl)-4-((2S,5R)-4-((S)-1-(4-fluorophenyl)-2-methylpropyl)-2,5-dimethylpiperazin-1-yl)-1H-[1,2,4]triazolo[3,4-b]purine] | ≤ 0.02 µM | ≤ 0.02 µM |
| C[C@@H]1CN(c2nc3nncn3c3c2ncn3CCN(C)C)[C@@H](C)CN1C(c1ccc(C(F)F)cc1)c1ccc(C(F)F)cc1 [Example 100, 2-(4-((2S,5R)-4-(Bis(4-(difluoromethyl)phenyl)methyl)-2,5-dimethylpiperazin-1-yl)-1H-[1,2,4]triazolo[3,4-b]purin-1-yl)-N,N-dimethylethan-1-amine] | ≤ 0.02 µM | ≤ 0.02 µM |
| Cc1nc2c(N3C[C@@H](C)N(C(c4ccc(C(F)(F)F)c(F)c4)C4CC(F)(F)C4)C[C@@H]3C)nc3nncn3c2n1C[C@@H]1CCCO1 (single isomer, unassigned) [Example 45] | ≤ 0.02 µM | ≤ 0.02 µM |
| Cc1nc2c(N3C[C@@H](C)N(C(c4ccc(Cl)cc4)C4CC(F)(F)C4)C[C@@H]3C)nc3nncn3c2n1C[C@@H]1CCCO1 (stereo partly drawn) [Example 60, 4-((2S,5R)-4-((4-Chlorophenyl)(3,3-difluorocyclobutyl)methyl)-2,5-dimethylpiperazin-1-yl)-2-methyl-1-(((S)-tetrahydrofuran-2-yl)methyl)-1H-[1,2,4]triazolo[3,4-b]purine] | ≤ 0.02 µM | ≤ 0.02 µM |
| CC[C@@H]1CN(c2nc3nncn3c3c2nc(C)n3C[C@@H]2CCCO2)[C@@H](C)CN1[C@@H](c1ccc(OC(F)(F)F)cc1)C(C)C [Example 131, 4-((2S,5R)-5-ethyl-2-methyl-4-((R)-2-methyl-1-(4-(trifluoromethoxy)phenyl)propyl)piperazin-1-yl)-2-methyl-1-(((S)-tetrahydrofuran-2-yl)methyl)-1H-[1,2,4]triazolo[3,4-b]purine] | ≤ 0.02 µM | ≤ 0.02 µM |
| Cc1nc2c(N3C[C@@H](C)N([C@H](c4ccc(C(F)(F)F)cc4F)C(C)C)C[C@@H]3C)nc3nncn3c2n1C[C@@H]1CCCO1 [Example 71, 4-((2S,5R)-4-((S)-1-(2-Fluoro-4-(trifluoromethyl)phenyl)-2-methylpropyl)-2,5-dimethylpiperazin-1-yl)-2-methyl-1-(((S)-tetrahydrofuran-2-yl)methyl)-1H-[1,2,4]triazolo[3,4-b]purine] | ≤ 0.02 µM | ≤ 0.02 µM |
| CC[C@H]1CN(C(c2ccc(F)cc2)c2ccc(F)cc2)[C@H](CC)CN1c1nc2nncn2c2c1ncn2CCN(C)C [Example 35, 2-(4-((2S,5R)-4-(Bis(4-fluorophenyl)methyl)-2,5-diethylpiperazin-1-yl)-1H-[1,2,4]triazolo[3,4-b]purin-1-yl)-N,N-dimethylethan-1-amine] | ≤ 0.02 µM | ≤ 0.02 µM |

Other lines, results leading:

| IC50 [1] | IC50 [2] | Structure (SMILES) |
| --- | --- | --- |
| ≤ 0.02 µM | 0.02 to 0.2 µM | C[C@@H]1CN(c2nc3nncn3c3scnc23)[C@@H](C)CN1C(c1ccc(F)cc1)c1ccc(F)cc1 [Example 1, 4-((2S,5R)-4-(Bis(4-fluorophenyl)methyl)-2,5-dimethylpiperazin-1-yl)thiazolo[4,5-e][1,2,4]triazolo[4,3-a]pyrimidine] |
| ≤ 0.02 µM | ≤ 0.02 µM | CC[C@@H]1CN(c2nc3nncn3c3c2nnn3C[C@@H]2CCCO2)[C@@H](C)CN1C(c1ccc(Cl)cc1)c1ccc(Cl)cc1 [Example 39, 4-((2S,5R)-4-(Bis(4-chlorophenyl)methyl)-5-ethyl-2-methylpiperazin-1-yl)-1-(((S)-tetrahydrofuran-2-yl)methyl)-1H-[1,2,3]triazolo[4,5-e][1,2,4]triazolo[4,3-a]pyrimidine] |
| ≤ 0.02 µM | ≤ 0.02 µM | Cc1nc2c(N3C[C@@H](CO)N(C(c4ccc(Cl)cc4)c4ccc(Cl)cc4)C[C@@H]3C)nc3nncn3c2n1C[C@@H]1CCCO1 [Example 137, ((2S,5S)-1-(Bis(4-chlorophenyl)methyl)-5-methyl-4-(2-methyl-1-(((S)-tetrahydrofuran-2-yl)methyl)-1H-[1,2,4]triazolo[3,4-b]purin-4-yl)piperazin-2-yl)methanol] |
| ≤ 0.02 µM | ≤ 0.02 µM | C[C@@H]1CN(c2nc3nncn3c3c2ncn3C[C@@H]2CCCO2)[C@@H](C)CN1[C@H](c1ccc(F)cc1)c1ccc(OC(F)(F)F)cn1 [Example 27, 4-((2S,5R)-4-((R)-(4-fluorophenyl)(5-(trifluoromethoxy)pyridin-2-yl)methyl)-2,5-dimethylpiperazin-1-yl)-1-(((S)-tetrahydrofuran-2-yl)methyl)-1H-[1,2,4]triazolo[3,4-b]purine] |
| ≤ 0.02 µM | > 2 µM | C[C@@H]1CN(c2nc3nncn3c3ccoc23)[C@@H](C)CN1C(c1ccc(F)cc1)c1ccc(F)cc1 [Example 7, 5-((2S,5R)-4-(Bis(4-fluorophenyl)methyl)-2,5-dimethylpiperazin-1-yl)furo[2,3-e][1,2,4]triazolo[4,3-a]pyrimidine] |
| ≤ 0.02 µM | ≤ 0.02 µM | CC[C@@H]1CN(c2nc3nncn3c3c2nc(C)n3C[C@@H]2CCCO2)[C@@H](C)CN1C(c1ccc(Cl)cc1)c1ccc(Cl)cc1 [Example 41, 4-((2S,5R)-4-(Bis(4-chlorophenyl)methyl)-5-ethyl-2-methylpiperazin-1-yl)-2-methyl-1-(((S)-tetrahydrofuran-2-yl)methyl)-1H-[1,2,4]triazolo[3,4-b]purine] |
| ≤ 0.02 µM | ≤ 0.02 µM | C[C@@H]1CN(c2nc3nncn3c3c2nnn3C[C@H]2CCCO2)[C@@H](C)CN1C(c1ccc(Br)cc1)c1ccc(Br)cc1 [Example 110, 4-((2S,5R)-4-(Bis(4-bromophenyl)methyl)-2,5-dimethylpiperazin-1-yl)-1-(((R)-tetrahydrofuran-2-yl)methyl)-1H-[1,2,3]triazolo[4,5-e][1,2,4]triazolo[4,3-a]pyrimidine] |
| ≤ 0.02 µM | ≤ 0.02 µM | Cc1nc2c(N3C[C@@H](C)N([C@@H](c4ccc(Cl)cc4)C(C)C)C[C@@H]3C)nc3nncn3c2n1C[C@@H]1CCCO1 [Example 89, 4-((2S,5R)-4-((R)-1-(4-chlorophenyl)-2-methylpropyl)-2,5-dimethylpiperazin-1-yl)-2-methyl-1-(((S)-tetrahydrofuran-2-yl)methyl)-1H-[1,2,4]triazolo[3,4-b]purine] |
| ≤ 0.02 µM | ≤ 0.02 µM | C[C@@H]1CN(c2nc3nncn3c3c2nnn3C[C@H]2CCCO2)[C@@H](C)CN1C(c1ccc(F)cc1)c1ccc(F)cc1 [Example 29, 4-((2S,5R)-4-(Bis(4-fluorophenyl)methyl)-2,5-dimethylpiperazin-1-yl)-1-(((R)-tetrahydrofuran-2-yl)methyl)-1H-[1,2,3]triazolo[4,5-e][1,2,4]triazolo[4,3-a]pyrimidine] |
